The target of one assay is KRas G12R (Homo sapiens, UniProt P01116, G12R). The assay can be described thus: biochemical. The note with it: Binding to KRas (IC50 nM) G12R, TR-FRET displacement, KRas G12R. (TR-FRET usually uses a lanthanide donor and a delayed reading to cut background.)
The target in the next assay is KRas G12V (Homo sapiens, UniProt P01116, G12V). The assay can be described thus: biochemical. The note with it: Binding to KRas (IC50 nM) G12V, TR-FRET displacement, KRas G12V.
The subject of a further assay is ASPC1 cells. The assay can be described thus: Inhibition of KRas-mediated phosphorylation of ERK (Cisbio HTRF pERK), ASPC1 cells. The format is cell-based. The note with it: Homo sapiens, AsPC-1 cells; for IC50: ASPC1, 3 h, 3 hr compound incubation, Cisbio pERK HTRF; for inhibition at 0.1 µM: ASPC1, single point at 100 nM, 3 hrs compound incubation.
The subject of the next assay is H727 cells. In words: Inhibition of KRas-mediated phosphorylation of ERK (Cisbio HTRF pERK), H727 cells. In kind it is cell-based. The note with it: Homo sapiens; for IC50: NCI-H727, 3 h, 3 hr compound incubation, Cisbio pERK HTRF; for inhibition at 0.1 µM: NCI-H727, single point at 100 nM, 3 hrs compound incubation.
In the next assay the target is KRas G13D (Homo sapiens, UniProt P01116, G13D). The format is binding. The note with it: TR-FRET displacement, read-out: Binding to KRas (IC50 nM) G13D.
In another assay the target is KRas G12D (Homo sapiens, UniProt P01116, G12D). The assay can be described thus: biochemical. The note with it: Binding to KRas (IC50 nM) G12D, TR-FRET displacement, KRas G12D.
A further assay has as its target KRas G12A (Homo sapiens, UniProt P01116, G12A). The format is binding. The note with it: TR-FRET displacement, read-out: Binding to KRas (IC50 nM) G12A.
In another assay the target is KRas WT (Homo sapiens, UniProt P01116). The assay can be described thus: KRas binding assay (TR-FRET displacement), KRas WT. The note with it: TR-FRET displacement.
A further assay deals with KRas Q61H (Homo sapiens, UniProt P01116, Q61H). The assay can be described thus: KRas binding assay (TR-FRET displacement), KRas Q61H. The note with it: TR-FRET displacement.
In a further assay the target is KRas G12S (Homo sapiens, UniProt P01116, G12S). In kind it is binding. The note with it: TR-FRET displacement, read-out: Binding to KRas (IC50 nM) G12S.
For another assay, the target named is KRas G12C (Homo sapiens, UniProt P01116, G12C). In kind it is binding. The note with it: TR-FRET displacement, read-out: Binding to KRas (IC50 nM) G12C.

Each structure is given as a SMILES string.

Chain of KRas G12R (P01116 1-169 isoform P01116-2 G12R): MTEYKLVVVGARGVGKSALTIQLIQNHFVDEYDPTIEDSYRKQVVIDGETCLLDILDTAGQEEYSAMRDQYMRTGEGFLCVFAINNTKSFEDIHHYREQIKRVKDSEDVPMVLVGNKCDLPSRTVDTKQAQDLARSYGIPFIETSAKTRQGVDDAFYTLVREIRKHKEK
Chain of KRas G13D (P01116 1-169 isoform P01116-2 G13D): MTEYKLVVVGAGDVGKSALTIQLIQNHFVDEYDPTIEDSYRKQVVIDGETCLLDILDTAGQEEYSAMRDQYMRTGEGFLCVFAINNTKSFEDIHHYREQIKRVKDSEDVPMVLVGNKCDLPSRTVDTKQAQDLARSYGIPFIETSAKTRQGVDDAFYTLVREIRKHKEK
Chain of KRas G12S (P01116 1-169 isoform P01116-2 G12S): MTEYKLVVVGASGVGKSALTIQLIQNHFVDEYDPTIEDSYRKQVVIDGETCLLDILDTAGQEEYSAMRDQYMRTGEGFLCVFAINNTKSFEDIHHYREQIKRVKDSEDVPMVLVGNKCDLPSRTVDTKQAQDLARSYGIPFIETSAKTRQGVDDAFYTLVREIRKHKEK
Chain of KRas G12V (P01116 1-169 isoform P01116-2 G12V): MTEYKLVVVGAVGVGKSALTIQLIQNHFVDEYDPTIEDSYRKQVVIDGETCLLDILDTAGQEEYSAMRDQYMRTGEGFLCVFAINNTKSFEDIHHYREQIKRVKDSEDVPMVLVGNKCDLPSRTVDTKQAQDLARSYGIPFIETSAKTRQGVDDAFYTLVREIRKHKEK
Chain of KRas Q61H (P01116 1-169 isoform P01116-2 Q61H): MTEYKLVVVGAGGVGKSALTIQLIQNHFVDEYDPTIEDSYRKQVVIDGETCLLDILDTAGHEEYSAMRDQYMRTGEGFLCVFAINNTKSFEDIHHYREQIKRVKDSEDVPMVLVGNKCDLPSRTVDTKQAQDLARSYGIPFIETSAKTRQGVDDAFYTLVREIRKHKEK
Chain of KRas G12A (P01116 1-169 isoform P01116-2 G12A): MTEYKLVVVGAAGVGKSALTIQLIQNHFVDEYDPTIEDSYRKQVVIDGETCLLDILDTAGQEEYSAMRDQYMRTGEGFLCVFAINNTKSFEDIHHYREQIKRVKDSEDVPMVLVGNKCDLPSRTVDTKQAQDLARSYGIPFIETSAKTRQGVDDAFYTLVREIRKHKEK
Chain of KRas G12D (P01116 1-169 isoform P01116-2 G12D): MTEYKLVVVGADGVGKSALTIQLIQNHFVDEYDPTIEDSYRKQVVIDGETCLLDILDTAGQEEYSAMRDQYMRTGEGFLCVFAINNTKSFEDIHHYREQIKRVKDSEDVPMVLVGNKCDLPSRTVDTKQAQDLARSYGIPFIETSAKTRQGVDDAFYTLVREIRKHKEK
Chain of KRas WT (P01116 1-169 isoform P01116-2): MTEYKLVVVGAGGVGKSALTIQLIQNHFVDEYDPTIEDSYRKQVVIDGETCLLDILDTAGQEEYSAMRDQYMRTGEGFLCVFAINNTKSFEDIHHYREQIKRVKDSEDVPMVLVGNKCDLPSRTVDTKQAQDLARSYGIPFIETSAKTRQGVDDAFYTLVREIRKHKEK
Chain of KRas G12C (P01116 1-169 isoform P01116-2 G12C): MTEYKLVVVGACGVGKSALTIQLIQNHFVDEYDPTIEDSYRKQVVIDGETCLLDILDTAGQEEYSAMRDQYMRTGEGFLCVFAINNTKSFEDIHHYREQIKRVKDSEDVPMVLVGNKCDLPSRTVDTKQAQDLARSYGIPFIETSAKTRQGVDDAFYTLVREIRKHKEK

As to `Cc1cc2[nH]ncc2c(N2CCc3c(nc(OCC45CCCN4CCC5)nc3N3CCCC4(CC(O)C4)C3)C2)c1C` (single isomer, unassigned; isomer 1) [Example 453, 6-(7-(5,6-dimethyl-1H-indazol-4-yl)-2-((hexahydro-1H-pyrrolizin-7a-yl)methoxy)-5,6,7,8-tetrahydropyrido[3,4-d]pyrimidin-4-yl)-6-azaspiro[3.5]nonan-2-ol (isomer 1)], the IC50 on KRas G12R was 680 nM; on KRas G12V, 262 nM; in the assay on ASPC1 cells it was 9380 nM; with H727 cells, 5760 nM; at KRas G13D, 1150 nM; at KRas G12D, 604 nM. The IC50 on KRas G12A came out at 523 nM; on KRas WT it was 826 nM; on KRas Q61H, 1150 nM; at KRas G12S it was 616 nM; on KRas G12C, 464 nM.

Regarding `O=S1(=O)NCC2(CCCN(c3nc(OCC45CCCN4CCC5)nc4c3CCN(c3cc(O)cc(Cl)c3C3CC3)C4)C2)N1` (stereo not drawn) [Example 438, 7-(7-(3-chloro-2-cyclopropyl-5-hydroxyphenyl)-2-((tetrahydro-1H-pyrrolizin-7a(5H)-yl)methoxy)-5,6,7,8-tetrahydropyrido[3,4-d]pyrimidin-4-yl)-2-thia-1,3,7-triazaspiro[4.5]decane 2,2-dioxide], the IC50 is below 2 nM on KRas G12R; below 2 nM at KRas G12V; 5610 nM in the assay on ASPC1 cells; 8000 nM in the assay on H727 cells; below 2 nM at KRas G13D; below 2 nM on KRas G12D. For the same compound, the IC50 on KRas G12A, at KRas WT, on KRas Q61H, on KRas G12S and on KRas G12C was below 2 nM in each case. Moreover, the inhibition at 0.1 µM in the assay on ASPC1 cells is -4%; with H727 cells, -7%.

Consider `O=C1NC(=O)C2(CCCN(c3nc(OCC45CCCN4CCC5)nc4c3CCN(c3cc(O)cc(Cl)c3C3CC3)C4)C2)N1` (stereo not drawn) [Example 439, 7-(7-(3-chloro-2-cyclopropyl-5-hydroxyphenyl)-2-((tetrahydro-1H-pyrrolizin-7a(5H)-yl)methoxy)-5,6,7,8-tetrahydropyrido[3,4-d]pyrimidin-4-yl)-1,3,7-triazaspiro[4.5]decane-2,4-dione], for which the IC50 at KRas G12R was below 2 nM; at KRas G12V it was below 2 nM; with ASPC1 cells, above 10000 nM; with H727 cells it was 6240 nM; on KRas G13D, below 2 nM; at KRas G12D, 2 nM. The IC50 at KRas G12A, at KRas WT, on KRas Q61H, at KRas G12S and at KRas G12C was below 2 nM each time.

Regarding `O=C1NCC2(CCCN(c3nc(OCC45CCCN4CCC5)nc4c3CCN(c3cc(O)cc(Cl)c3C3CC3)C4)C2)N1` (stereo not drawn) [Example 442, 7-(7-(3-chloro-2-cyclopropyl-5-hydroxyphenyl)-2-((tetrahydro-1H-pyrrolizin-7a(5H)-yl)methoxy)-5,6,7,8-tetrahydropyrido[3,4-d]pyrimidin-4-yl)-1,3,7-triazaspiro[4.5]decan-2-one], the IC50 at KRas G12R is 3 nM; at KRas G12V, 3 nM; in the assay with ASPC1 cells, above 10000 nM; in the assay on H727 cells, above 10000 nM; on KRas G13D, 4 nM; on KRas G12D, below 2 nM. Besides, the half-maximal inhibitory concentration (IC50) on KRas G12A was below 2 nM; at KRas WT, 3 nM; at KRas Q61H, 2 nM; on KRas G12S it was 3 nM; at KRas G12C, below 2 nM. For the same compound, the results for the inhibition at 0.1 µM in the assay with ASPC1 cells and with H727 cells were 9% and -4%, respectively.

Take `O=C1CC2(CCCN(c3nc(OCC45CCCN4CCC5)nc4c3CCN(c3cc(O)cc(Cl)c3C3CC3)C4)C2)N1` (stereo not drawn) [Example 443, 6-(7-(3-chloro-2-cyclopropyl-5-hydroxyphenyl)-2-((tetrahydro-1H-pyrrolizin-7a(5H)-yl)methoxy)-5,6,7,8-tetrahydropyrido[3,4-d]pyrimidin-4-yl)-1,6-diazaspiro[3.5]nonan-2-one]: the IC50 on KRas G12R is 4 nM; on KRas G12V it was 3 nM; in the assay on ASPC1 cells, above 10000 nM; with H727 cells, 8580 nM; at KRas G13D it was 8 nM; at KRas G12D, 6 nM. In addition, the IC50 on KRas G12A stood at 6 nM; at KRas WT, 8 nM; on KRas Q61H, 5 nM; at KRas G12S, 4 nM; on KRas G12C, 3 nM. Further, the values for the inhibition at 0.1 µM in the assay on ASPC1 cells and with H727 cells were -16% and -25%, respectively.

Regarding `Oc1cc(Cl)c(C2CC2)c(N2CCc3c(nc(OCC45CCCN4CCC5)nc3N3CC4CC(O)C(C4)C3)C2)c1` (stereo not drawn) [Example 444, 3-(7-(3-chloro-2-cyclopropyl-5-hydroxyphenyl)-2-((tetrahydro-1H-pyrrolizin-7a(5H)-yl)methoxy)-5,6,7,8-tetrahydropyrido[3,4-d]pyrimidin-4-yl)-3-azabicyclo[3.2.1]octan-6-ol], the IC50 worked out at 40 nM on KRas G12R; 38 nM on KRas G12V; 8870 nM with ASPC1 cells; 5680 nM with H727 cells; 53 nM on KRas G13D; 133 nM at KRas G12D. Moreover, the IC50 on KRas G12A worked out at 52 nM; at KRas WT, 50 nM; at KRas Q61H it was 87 nM; on KRas G12S, 42 nM; at KRas G12C, 64 nM.

For `O=C1NC(=O)C2CN(c3nc(OCC45CCCN4CCC5)nc4c3CCN(c3cc(O)cc(Cl)c3C3CC3)C4)CC12` (stereo not drawn) [Example 445, 5-(7-(3-chloro-2-cyclopropyl-5-hydroxyphenyl)-2-((tetrahydro-1H-pyrrolizin-7a(5H)-yl)methoxy)-5,6,7,8-tetrahydropyrido[3,4-d]pyrimidin-4-yl)tetrahydropyrrolo[3,4-c]pyrrole-1,3(2H,3aH)-dione], the IC50 at KRas G12R was 8 nM; at KRas G12V, 4 nM; in the assay on ASPC1 cells, above 10000 nM; with H727 cells, above 10000 nM; at KRas G13D, 7 nM; at KRas G12D, 4 nM. The IC50 is 8 nM on KRas G12A; 7 nM at KRas WT; 9 nM at KRas Q61H; 3 nM on KRas G12S; 7 nM at KRas G12C. Moreover, the inhibition at 0.1 µM was -9% in the assay on ASPC1 cells and 13% in the assay with H727 cells.

Take `Cc1cc2[nH]ncc2c(N2CCc3c(nc(OC[C@@]45CCCN4C[C@H](F)C5)nc3N3CCC[C@]4(C3)NC(=O)NC4=O)C2)c1C` [Example 450, (R)-7-(7-(5,6-dimethyl-1H-indazol-4-yl)-2-(((2R,7aS)-2-fluorohexahydro-1H-pyrrolizin-7a-yl)methoxy)-5,6,7,8-tetrahydropyrido[3,4-d]pyrimidin-4-yl)-1,3,7-triazaspiro[4.5m] odecane-2,4-dione]: the IC50 at KRas G12R came out at 3 nM; on KRas G12V it was 3 nM; in the assay on ASPC1 cells, 3490 nM; in the assay with H727 cells it was 1270 nM; at KRas G13D, 6 nM; on KRas G12D it was 5 nM. For the same compound, the IC50 on KRas G12A was found to be 8 nM; on KRas WT, 8 nM; at KRas Q61H, 5 nM; at KRas G12S, 7 nM; at KRas G12C it was 7 nM.

Consider `CCc1cccc2cccc(N3CCc4c(nc(OCC5(CN(C)C)CC5)nc4N4CCCN(CC(F)(F)F)CC4)C3)c12` [Example 684, 1-(1-(((7-(8-ethylnaphthalen-1-yl)-4-(4-(2,2,2-trifluoroethyl)-1,4-diazepan-1-yl)-5,6,7,8-tetrahydropyrido[3,4-d]pyrimidin-2-yl)oxy)methyl)cyclopropyl)-N,N-dimethylmethanamine], for which the IC50 was 11400 nM on KRas G12R; 11200 nM on KRas G12V; 2220 nM on KRas G13D; 41700 nM at KRas G12D; 2640 nM on KRas G12A; 1880 nM at KRas WT. The IC50 at KRas Q61H was determined as 2210 nM; on KRas G12S, 1960 nM; on KRas G12C, 1810 nM.

Turning to `CCc1cccc2cccc(N3CCc4c(nc(OCC5(CN(C)C)CC5)nc4N(C)Cc4nnc5c(=O)n(C)ccn45)C3)c12` [Example 700, 3-(((2-((1-((dimethylamino)methyl)cyclopropyl)methoxy)-7-(8-ethylnaphthalen-1-yl)-5,6,7,8-tetrahydropyrido[3,4-d]pyrimidin-4-yl)(methyl)amino)methyl)-7-methyl-[1,2,4]triazolo[4,3-a]pyrazin-8(7H)-one], the IC50 at KRas G12R came out at 687 nM; on KRas G12V, 452 nM; on KRas G13D it was 374 nM; on KRas G12D, 1380 nM; at KRas G12A it was 474 nM; at KRas WT, 522 nM. In addition, the IC50 on KRas Q61H was found to be 577 nM; at KRas G12S, 399 nM; on KRas G12C, 251 nM.

A word on the IC50: it is the concentration at which inhibition is half-maximal. In general, inhibition refers to the drop in the measured response relative to a control, in per cent.

The record behind these values is patent US20250368649A1, “TETRAHYDROPYRIDOPYRIMIDINE PAN-KRAS INHIBITORS” (Mirati Therapeutics, Inc., priority 2022, published 2025).
